Source: patent publication US20100298141A1, “SUBSTITUTED PYRIDINE N-OXIDE HERBICIDES” (E. I. DU PONT DE NEMOURS AND COMPANY, priority 2007, published 2010)

What was measured:
mustard = test: Test F preemergence test; type: in vivo, Brassica nigra; conditions: scale 0 to 100
How it was run: (§1)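 Visual ratings relative to controls, taken after 14 to 21 days in a greenhouse. Test chemicals, formulated in a surfactant-containing non-phytotoxic solvent mixture, were applied preemergence to sown seeds or postemergence to sugarcane plants.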

green foxtail = test: Test F preemergence test; type: in vivo, Setaria viridis; conditions: scale 0 to 100
How it was run: as §1

field bindweed = test: Test F preemergence test; type: in vivo, Convolvulus arvensis; conditions: scale 0 to 100
How it was run: as §1

windgrass = test: Test C pre-/postemergence test; type: in vivo, Apera spica-venti; conditions: Postemergence; for Plant response rating, Windgrass: scale 0 to 100, 0 no effect, 100 complete control
Text: Seeds of plant species selected from blackgrass (Alopecurus myosuroides), downy brome (Bromus tectorum), green foxtail (Setaria viridis), Italian ryegrass (Lolium multiflorum), wheat (Triticum aestivum), wild oat (Avena fatua), catchweed bedstraw (Galium aparine), Russian thistle (Salsola kali), […] (Cynodon dactylon), Surinam grass (Brachiaria decumbens), cocklebur (Xanthium strumarium), corn (Zea mays), crabgrass (Digitaria sanguinalis), woolly cupgrass (Eriochloa villosa), giant foxtail (Setaria faberii), Goosegrass (Eleusin indica), johnsongrass (Sorghum halepense), kochia (Kochia scoparia), lambsquarters (Chenopodium album), morningglory (Ipomoea coccinea), eastern black nightshade (Solanum ptycanthum), yellow nutsedge (Cyperus esculentus), pigweed (Amaranthus retroflexus), common ragweed (Ambrosia elation), soybean (Glycine max), common (oilseed) sunflower (Helianthus annuus), and velvetleaf (Abutilon theophrasti) were planted and treated preemergence with test chemicals formulated in a non-phytotoxic solvent mixture which included a surfactant. At the same time, plants selected from these crop and weed species and also winter barley (Hordeum vulgare), canarygrass (Phalaris minor), and chickweed (Stellaria media) were treated with postemergence applications of some of the test chemicals formulated in the same manner. Plants ranged in height from 2 to 18 cm (1- to 4-leaf stage) for postemergence treatments. […] At time of treatment, test pots were flooded to 3 cm above the soil surface, treated by application of test compounds directly to the paddy water, and then maintained at that water depth for the duration of the test. […] A dash (-) response means no test result.

barnyardgrass = test: Test F preemergence test; type: in vivo, Echinochloa crus-galli; conditions: scale 0 to 100
How it was run: as §1

common mallow = test: Test F preemergence test; type: in vivo, Malva sylvestris; conditions: scale 0 to 100
How it was run: as §1

common purslane = test: Test F preemergence test; type: in vivo, Portulaca oleracea; conditions: scale 0 to 100
How it was run: as §1

quackgrass = test: Test F preemergence test; type: in vivo, Elytrigia repens; conditions: scale 0 to 100
How it was run: as §1

guineagrass = test: Test F preemergence test; type: in vivo, Panicum maximum; conditions: scale 0 to 100
How it was run: as §1

common groundsel = test: Test F preemergence test; type: in vivo, Senecio vulgaris; conditions: scale 0 to 100
How it was run: as §1

prickly sida = test: Test F preemergence test; type: in vivo, Sida spinosa; conditions: scale 0 to 100
How it was run: as §1

itchgrass = test: Test F preemergence test; type: in vivo, Rottboellia cochinchinensis; conditions: scale 0 to 100
How it was run: as §1

dallisgrass = test: Test F preemergence test; type: in vivo, Paspalum dilatatum; conditions: scale 0 to 100
How it was run: as §1

southern sandbur = test: Test F preemergence test; type: in vivo, Cenchrus echinatus; conditions: scale 0 to 100; for Sandbur plant response rating: preemergence; for Plant response rating, Sandbur: Preemergence
How it was run: as §1

Structure (SMILES): Cn1nc(C(F)(F)F)c(C[S+]([O-])c2ccc(F)c[n+]2[O-])c1OC(F)F (stereo not shown) [Compound 58]
- Black Mustard plant response rating (mustard; 62 g ai/ha, Preemergence): 60
- Black Mustard plant response rating (mustard; 125 g ai/ha, preemergence): 100
- Black Mustard plant response rating (mustard; 250 g ai/ha, preemergence): 100
- Plant response rating, Black Mustard (mustard; Preemergence, 31 g ai/ha): 50
- Foxtail, Green plant response rating (green foxtail; 62 g ai/ha, Preemergence): 95
- Foxtail, Green plant response rating (green foxtail; 125 g ai/ha, preemergence): 100
- Foxtail, Green plant response rating (green foxtail; 250 g ai/ha, preemergence): 100
- Plant response rating, Foxtail, Green (green foxtail; Preemergence, 31 g ai/ha): 60
- Field Bindweed plant response rating (field bindweed; 62 g ai/ha, Preemergence): 0
- Field Bindweed plant response rating (field bindweed; 125 g ai/ha, preemergence): 20
- Field Bindweed plant response rating (field bindweed; 250 g ai/ha, preemergence): 65
- Plant response rating, Field Bindweed (field bindweed; Preemergence, 31 g ai/ha): 0
- Plant response rating (0 to 100), Windgrass (windgrass; 31 g ai/ha): 20
- Plant response rating (0 to 100), Windgrass (windgrass; 62 g ai/ha): 40
- Plant response rating, Windgrass (windgrass; 125 g ai/ha): 70
- Plant response rating, Windgrass (windgrass; 250 g ai/ha): 95
- Barnyardgrass plant response rating (barnyardgrass; 62 g ai/ha, Preemergence): 100
- Barnyardgrass plant response rating (barnyardgrass; 125 g ai/ha, preemergence): 100
- Barnyardgrass plant response rating (barnyardgrass; 250 g ai/ha, preemergence): 100
- Plant response rating, Barnyardgrass (barnyardgrass; Preemergence, 31 g ai/ha): 90
- Mallow plant response rating (common mallow; 62 g ai/ha, Preemergence): 25
- Mallow plant response rating (common mallow; 125 g ai/ha, preemergence): 90
- Mallow plant response rating (common mallow; 250 g ai/ha, preemergence): 100
- Purslane plant response rating (common purslane; 62 g ai/ha, Preemergence): 25
- Purslane plant response rating (common purslane; 125 g ai/ha, preemergence): 80
- Purslane plant response rating (common purslane; 250 g ai/ha, preemergence): 100
- Plant response rating, Purslane (common purslane; Preemergence, 31 g ai/ha): 0
- Quackgrass plant response rating (quackgrass; 62 g ai/ha, Preemergence): 70
- Quackgrass plant response rating (quackgrass; 125 g ai/ha, preemergence): 95
- Quackgrass plant response rating (quackgrass; 250 g ai/ha, preemergence): 100
- Plant response rating, Quackgrass (quackgrass; Preemergence, 31 g ai/ha): 35
- Guineagrass plant response rating (guineagrass; 62 g ai/ha, Preemergence): 100
- Guineagrass plant response rating (guineagrass; 125 g ai/ha, preemergence): 100
- Guineagrass plant response rating (guineagrass; 250 g ai/ha, preemergence): 100
- Plant response rating, Guineagrass (guineagrass; Preemergence, 31 g ai/ha): 90
- Groundsel plant response rating (common groundsel; 62 g ai/ha, Preemergence): 60
- Groundsel plant response rating (common groundsel; 125 g ai/ha, preemergence): 85
- Groundsel plant response rating (common groundsel; 250 g ai/ha, preemergence): 100
- Plant response rating, Groundsel (common groundsel; Preemergence, 31 g ai/ha): 20
- Prickly Sida plant response rating (prickly sida; 62 g ai/ha, Preemergence): 65
- Prickly Sida plant response rating (prickly sida; 125 g ai/ha, preemergence): 95
- Prickly Sida plant response rating (prickly sida; 250 g ai/ha, preemergence): 98
- Plant response rating, Prickly Sida (prickly sida; Preemergence, 31 g ai/ha): 0
- Itchgrass plant response rating (itchgrass; 62 g ai/ha, Preemergence): 75
- Itchgrass plant response rating (itchgrass; 125 g ai/ha, preemergence): 90
- Itchgrass plant response rating (itchgrass; 250 g ai/ha, preemergence): 100
- Plant response rating, Itchgrass (itchgrass; Preemergence, 31 g ai/ha): 35
- Dallisgrass plant response rating (dallisgrass; 62 g ai/ha, Preemergence): 90
- Dallisgrass plant response rating (dallisgrass; 125 g ai/ha, preemergence): 98
- Dallisgrass plant response rating (dallisgrass; 250 g ai/ha, preemergence): 98
- Plant response rating, Dallisgrass (dallisgrass; Preemergence, 31 g ai/ha): 75
- Sandbur plant response rating (southern sandbur; 125 g ai/ha): 100
- Sandbur plant response rating (southern sandbur; 250 g ai/ha): 100
- Plant response rating, Sandbur (southern sandbur; 62 g ai/ha): 100
- Plant response rating, Sandbur (southern sandbur; 31 g ai/ha): 80
